Where “and” joins values, the source holds several entries; their conditions need not be identical. Identical values can stand only once.
What was measured:
[1] = tested on: Brd2(1) and (2) wild type and leucine to alanine, valine and isoleucine mutants; assay: DSF thermal stabilization (FIG. 15); type: binding, human; conditions: result in words
Protocol: (§1) DSF assays were performed on a LightCycler®480 from Roche or a Mx3005P Real Time PCR machine from Stratagene. […] SYPRO®Orange from Invitrogen Molecular Probes® was used as a reporter dye to monitor the denaturing process of the proteins. Samples were assayed on a 96-well plate with final protein concentrations of 2 μM for the LightCycler®480 and 6 μM for Mx3005P. Compounds were added at a final concentration of 10 μM for the LightCycler®480 and 30 μM for Mx3005P, while the tetra acetylated histone peptide was added to a final concentration of 100 μM and 300 μM respectively. […] The temperature was raised with a step of 0.6° C. per minute from 37° C. to 95° C. with the LightCycler®480 collecting 39 measurements per ° C., and 1° C. per minute from 25° C. to 95° C. with Mx3005P, collecting fluorescence readings at the end of each interval. Each sample was run in triplicates.
(§2) Collected data was analysed by IGOR Pro 6, a scientific software tool from Wave Metrics, Inc. Analysis was done following the recommendations of Niesen et al.. Fluorescence intensity was plotted as a function of temperature, generating a sigmoidal curve described by a two-state transition from folded to unfolded protein. Curves were fitted by the following sigmoidal equation: […]
(§3) A1 and A2 are the values of minimum and maximum intensities, respectively, x0 is the inflection point and dx is the rate. Fitted curves were differentiated in IGOR Pro 6 and the maximum of the first derivative was identified using the same program. These values correspond to the inflection points of the transition curves and thus to the melting temperatures of the proteins (Tm).

Brd3(1)* (L070A) = target: T1, Brd3(1)* (L070A) (Homo sapiens, UniProt Q15059, L70A); assay: DSF thermal shift; type: binding; conditions: mutant
T1 construct: Plasmids of the eight single BET bromodomain constructs Brd2(1), Brd2(2), Brd3(1), Brd3(2); His6 (N); made in house; host or cells: E. coli BL21(DE3)

Brd2(2) [2] = target: T2, Brd2(2) (Homo sapiens, UniProt P25440); assay: ITC reverse titration of protein into compound; type: binding; conditions: ITC 25° C.; for Kd: Kd Brd2(2)
T2 construct: Plasmids of the eight single BET bromodomain constructs Brd2(1), Brd2(2), Brd3(1), Brd3(2); His6 (N); made in house; host or cells: E. coli BL21(DE3)
Protocol: (§4) ITC experiments were carried out on a ITC200 instrument from MicroCal™ Experiments were conducted at 3 different temperatures 15° C., 25° C. and 30° C., while stirring at 1000 rpm. Buffers of proteins, peptide and compounds were matched to 20 mM HEPES pH 7.5 at 25° C. and 100 mM NaCl. Frozen protein was buffer exchanged as described for the DSF experiments. Each titration comprised 1 initial injection of 0.4 μl lasting 0.8 s, followed by 19 injections of 2 μl lasting 4 s each at 2 min intervals. The initial injection was discarded during data analysis. Standard and reverse titrations were conducted depending on the binding partners.
(§5) Reverse titrations were conducted to test the binding of the known ligands and the novel chemical probes to the wild types and the mutants. Experiments were carried out either at 25° C. or 30° C. […] In cases where the compound was solubilized in dimethyl sulfoxide, DMSO concentration was adjusted to 1% both in the syringe and in the cell.
(§6) All the data was fitted to a single binding site model using the Microcal LLC ITC200 Origin software provided by the manufacturer to yield enthalpies of binding (ΔH) and binding constants (Kas). Further thermodynamic parameters were calculated from these values (changes in entropy ΔS, changes in free energy AG and dissociation constants (Kds)).

Brd2(1) [3] = target: T3, Brd2(1) (Homo sapiens, UniProt P25440); assay: ITC reverse titration of protein into compound; type: binding; conditions: for ΔH Brd2(1): ITC 25° C.
T3 construct: Plasmids of the eight single BET bromodomain constructs Brd2(1), Brd2(2), Brd3(1), Brd3(2); His6 (N); made in house; host or cells: E. coli BL21(DE3)
Protocol: as §4, §5, §6

Brd2(2)*(Leu383-Ala) = Brd2(2)*(Leu383-Ala) (Homo sapiens, UniProt P25440, L383A); assay: DSF thermal shift; type: binding; parameters: Plasmids of the eight single BET bromodomain constructs Brd2(1), Brd2(2), Brd3(1), Brd3(2); His6 (N); made in house; host or cells: E. coli BL21(DE3); conditions: mutant
Protocol: as §1, §2, §3

Brd2(1)*(Leu110-Ala) = Brd2(1)*(Leu110-Ala) (Homo sapiens, UniProt P25440, L110A); assay: DSF thermal shift; type: binding; parameters: Plasmids of the eight single BET bromodomain constructs Brd2(1), Brd2(2), Brd3(1), Brd3(2); His6 (N); made in house; host or cells: E. coli BL21(DE3); conditions: mutant
Protocol: as §1, §2, §3

brdt(2)L306A = target: T4, brdt(2)L306A (Homo sapiens, UniProt Q58F21, L306A); assay: DSF thermal shift; type: binding; conditions: mutant
T4 construct: Plasmids of the eight single BET bromodomain constructs Brd2(1), Brd2(2), Brd3(1), Brd3(2), Brd4(1), Brd4(2), Brdt(1) and Brdt(2); His6 (N); made in house; host or cells: E. coli BL21(DE3)

Brd2(2) [4] = target: T2, Brd2(2); assay: DSF thermal shift; type: binding; conditions: wild type
Brdt(1) = target: T5, Brdt(1) (Homo sapiens, UniProt Q58F21); assay: DSF thermal shift; type: binding; conditions: wild type
T5 construct: Plasmids of the eight single BET bromodomain constructs Brd2(1), Brd2(2), Brd3(1), Brd3(2), Brd4(1), Brd4(2), Brdt(1) and Brdt(2); His6 (N); made in house; host or cells: E. coli BL21(DE3)

Brdt(2) = target: T6, Brdt(2) (Homo sapiens, UniProt Q58F21); assay: DSF thermal shift; type: binding; conditions: wild type
T6 construct: Plasmids of the eight single BET bromodomain constructs Brd2(1), Brd2(2), Brd3(1), Brd3(2), Brd4(1), Brd4(2), Brdt(1) and Brdt(2); His6 (N); made in house; host or cells: E. coli BL21(DE3)

Brd2(1) [5] = target: T3, Brd2(1); assay: DSF thermal shift; type: binding; conditions: wild type
Brd3(2) = target: T7, Brd3(2) (Homo sapiens, UniProt Q15059); assay: DSF thermal shift; type: binding; conditions: wild type
T7 construct: Plasmids of the eight single BET bromodomain constructs Brd2(1), Brd2(2), Brd3(1), Brd3(2), Brd4(1), Brd4(2), Brdt(1) and Brdt(2); His6 (N); made in house; host or cells: E. coli BL21(DE3)

brd3(2)L344A = target: T8, brd3(2)L344A (Homo sapiens, UniProt Q15059, L345A); assay: DSF thermal shift; type: binding; conditions: mutant
T8 construct: Plasmids of the eight single BET bromodomain constructs Brd2(1), Brd2(2), Brd3(1), Brd3(2), Brd4(1), Brd4(2), Brdt(1) and Brdt(2); His6 (N); made in house; host or cells: E. coli BL21(DE3)

Brd3(1) = target: T9, Brd3(1) (Homo sapiens, UniProt Q15059); assay: DSF thermal shift; type: binding; conditions: wild type
T9 construct: Plasmids of the eight single BET bromodomain constructs Brd2(1), Brd2(2), Brd3(1), Brd3(2); His6 (N); made in house; host or cells: E. coli BL21(DE3)

brdt(1)L063A = target: T10, brdt(1)L063A (Homo sapiens, UniProt Q58F21, L63A); assay: DSF thermal shift; type: binding; conditions: mutant
T10 construct: Plasmids of the eight single BET bromodomain constructs Brd2(1), Brd2(2), Brd3(1), Brd3(2), Brd4(1), Brd4(2), Brdt(1) and Brdt(2); His6 (N); made in house; host or cells: E. coli BL21(DE3)

T3 sequence (P25440 74-180 limits assumed): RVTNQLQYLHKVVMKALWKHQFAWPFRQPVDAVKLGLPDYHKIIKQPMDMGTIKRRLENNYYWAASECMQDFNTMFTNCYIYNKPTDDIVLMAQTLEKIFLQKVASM
Sequence of Brd2(2)*(Leu383-Ala) (P25440 344-453 L383A limits assumed): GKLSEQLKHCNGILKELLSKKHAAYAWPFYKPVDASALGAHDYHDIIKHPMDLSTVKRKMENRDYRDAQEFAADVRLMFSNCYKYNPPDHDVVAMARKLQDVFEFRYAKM
Sequence of Brd2(1)*(Leu110-Ala) (P25440 74-180 L110A limits assumed): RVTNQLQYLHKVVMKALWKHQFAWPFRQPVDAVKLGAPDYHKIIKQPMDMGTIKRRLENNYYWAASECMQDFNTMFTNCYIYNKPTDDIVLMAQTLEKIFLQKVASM
T2 sequence (P25440 344-453 limits assumed): as the sequence (P25440 344-453 L383A limits assumed) above, with A40L counted along it
T7 sequence (Q15059 306-415 limits assumed): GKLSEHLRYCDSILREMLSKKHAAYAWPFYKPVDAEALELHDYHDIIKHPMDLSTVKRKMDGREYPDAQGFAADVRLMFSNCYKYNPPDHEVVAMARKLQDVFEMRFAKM
T9 sequence (Q15059 34-140 limits assumed): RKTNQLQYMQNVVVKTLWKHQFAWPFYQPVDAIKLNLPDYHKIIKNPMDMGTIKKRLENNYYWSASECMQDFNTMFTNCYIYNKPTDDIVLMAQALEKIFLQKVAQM
T1 sequence (Q15059 34-140 L70A limits assumed): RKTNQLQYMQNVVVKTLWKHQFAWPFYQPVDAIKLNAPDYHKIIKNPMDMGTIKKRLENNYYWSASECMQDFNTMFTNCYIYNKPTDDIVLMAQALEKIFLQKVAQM
T8 sequence (Q15059 306-415 L345A): as the sequence (Q15059 306-415 limits assumed) above, with L40A counted along it

| Structure (SMILES) | Thermal stabilization of Brd2 mutants versus wild types (FIG. 15) [1] | ΔTm Brd3(1)* (L070A) (Brd3(1)* (L070A)) [K] | ΔH Brd2(2) (Brd2(2) [2]) [kcal/mol] | Kd (Brd2(2) [2]) | Kd (Brd2(1) [3]) [µM] | ΔH Brd2(1) (Brd2(1) [3]) [kcal/mol] | ΔTm Brd2(2)*(Leu383-Ala) (Brd2(2)*(Leu383-Ala)) [K] | ΔTm Brd2(1)*(Leu110-Ala) (Brd2(1)*(Leu110-Ala)) [K] | ΔTm Brdt(2)* (L306A) (brdt(2)L306A) [K] | ΔTm Brd2(2) (Brd2(2) [4]) [K] | ΔTm Brdt(1) (Brdt(1)) [K] | ΔTm Brdt(2) (Brdt(2)) [K] | ΔTm Brd2(1) (Brd2(1) [5]) [K] | ΔTm Brd3(2) (Brd3(2)) [K] | ΔTm Brd3(2)* (L344A) (brd3(2)L344A) [K] | ΔTm Brd3(1) (Brd3(1)) [K] | ΔTm Brdt(1)* (L063A) (brdt(1)L063A) [K] | also measured |
| --- | --- | --- | --- | --- | --- | --- | --- | --- | --- | --- | --- | --- | --- | --- | --- | --- | --- | --- |
| CC[C@@H](C(=O)OC)[C@@H]1N=C(c2ccc(Cl)cc2)c2cc(OC)ccc2-n2c(C)nnc21 (racemic) [Compound 11, (+−)-methyl (R)-2-((S)-6-(4-chlorophenyl)-8-methoxy-1-methyl-4H-benzo[f][1,2,4]triazolo[4,3-a][1,4]diazepin-4-yl)butanoate] | increased thermal shifts of the leucine to alanine mutants | 10.4 ± 0.3 | -3.601 ± 0.0852 | 2.2 ± 0.4 µM | 1.78 ± 2 | -2.957 ± 0.2144 | 8.1 ± 0.2 | 7.6 ± 0.2 | 6.7 ± 0.4 | 1.6 ± 0.1 | 1.5 ± 0.4 | 1.3 ± 0.3 | 1.2 ± 0.2 | 2.6 ± 0.7 | 13.4 ± 0.6 | 2.2 ± 0.1 | 5.4 ± 0.3 | – |
| COC(=O)[C@H](C)[C@@H]1N=C(c2ccc(Cl)cc2)c2cc(OC)ccc2-n2c(C)nnc21 (racemic) [Compound 7, (+−)-methyl (R)-2-((S)-6-(4-chlorophenyl)-8-methoxy-1-methyl-4H-benzo[f][1,2,4]triazolo[4,3-a][1,4]diazepin-4-yl)propanoate] | increased thermal shifts of the leucine to alanine mutants | 10.8 ± 0.3 | -5.36 ± 0.117 | 0.3 µM and 0.298 µM | 1.47 | -8.653 ± 0.1357 | 9.3 ± 0.2 | 7.9 ± 0.2 | 7.9 ± 0.2 | 5.6 ± 0.1 | 5.3 ± 0.3 | 3.7 ± 0.3 | 3.2 ± 0.2 | 6.7 ± 1.0 | 15.6 ± 0.4 | 5.9 ± 0.2 | 5.8 ± 0.3 | Thermal stabilisation brd2(2)L383A (Brd2(2)*(Leu383-Ala)): 9.3 ± 0.2 °C; Thermal stabilisation brd2(2)L383A (Brd2(2)*(Leu383-Ala); listed as compound 7): 9.3 °C; Thermal stabilisation brd2(1)L110A (Brd2(1)*(Leu110-Ala)): 7.9 ± 0.2 °C; Thermal stabilisation brd2(1)L110A (Brd2(1)*(Leu110-Ala); listed as compound 7): 7.9 °C; Thermal stabilisation brd2(2) (Brd2(2) [4]): 5.6 ± 0.1 °C; Thermal stabilisation brd2(2) (Brd2(2) [4]; listed as compound 7): 5.6 °C; Thermal stabilisation brd2(1) (Brd2(1) [5]): 3.2 ± 0.2 °C; Thermal stabilisation brd2(1) (Brd2(1) [5]; listed as compound 7): 3.2 °C |

Source: US20170122958A1, “Enzymes Functional Probes” (University of Dundee, priority 2013, published 2017)
